Source: US4225607A, “Pharmaceutical composition containing a xanthine derivative” (Wulfing; Johann A., priority 1979, dated 1980)
“And” between values parts separate entries of the source, which are not always exact repeats. Identical values can stand only once. Blank lines part the entries; values can stand above or below the compound they belong to.

Tests used:
skeletal muscle = test: Oxygen tension (pO2) in skeletal muscle (m. gastrocnemius), femoral artery ligation, Pt-needle electrodes; type: in vivo, cat; details: for effect of Compound A, Δ pO2: 125 μg/kg i.v.
Method: Cats of either sex were anaesthetized with urethane/chloralose (120/60 mg/kg i.p.). In the course of the experiments, pentobarbital was injected intravenously (V. antebrachii ceph.) via a plastic tube. The intraduodenal (i.d.) application of compound was conducted by means of a plastic catheter, which was inserted into the duodenum.
pO2 was measured polarographically using Pt-needle electrodes (modified according to Baumgartl and Lubbers, 1973). The reference electrode, an Ag/AgCl system was sputtered on the glass mantle of the cathode, or it was a separate electrode. The cathode was coated with a polystyrol and a collodium membrane. A constant voltage supply provided a polarizing voltage between 600 and 800 mV. The reducing current was measured by a nano-ampere amplifying meter. The cathode was inserted in the tissue by means of a motor-driven micromanipulator.
A pO2 -electrode was inserted in the muscle tissue (m. gastrocnemius) of both hindlegs of an anaesthetized cat. After recording the pO2 of the normal perfused muscle, the blood flow to one measuring site was restricted by ligating the femoral artery. The pO2 dropped steeply and the tissue became ischaemic. After a few minutes, the pO2 increased and then decreased again. The values were constant after 30 to 60 min. After having reached a constant level of pO2, the vehicle was given, followed by the test substance.
The mean value and the standard deviation were calculated, in order to check the significance of the effect.

[1] = Solubility in water / aqueous media; type: physicochemical
[2] = tested on: ischaemic skeletal muscle; test: Contractility of ischaemic skeletal (calf) muscle, direct stimulation, femoral artery graded occlusion; type: in vivo; details: cat; for changes in contractility and pO2 in comparison with Compound A (in words): 5-32 mg/kg vs Compound A at 125 μg/kg; for dose range of activity: contractility and pO2 of ischaemic skeletal muscle
Method: Cats of either sex were anaesthetized with urethane/chloralose (120/60 mg/kg i.p.). […] The intraduodenal (i.d.) application of compound was conducted by means of a plastic catheter, which was inserted into the duodenum.
Cats of either sex were anaesthetized as for pO2 measurement. After dissection of the skin of the calf muscles, the sciatic nerve was cut about 3 cm proximal to the knee. The tendon of the calf muscles was cut and connected with an isometric force transducer (SWEMA, SG 3). In order to maintain constant differences and a resting tension of 100 p, the hind limb was fixed at the tibia by means of a clamp. Direct stimulation of the muscles consisted of square wave pulses of 4 msec duration at a frequency of 2 Hz and at a voltage of 50 V. In order to keep the muscles wet and at a normal temperature, the muscles were continuously superfused by means of a NaCl-solution (0.9%, 38° C.). Femoral blood flow was restricted by a graded occlusion of the artery leading to a reduction of contractility by ca. 30%. After having reached a constant level of the contraction force, the vehicle (NaCl and Methocel, respectively) was injected, followed by the test substance.

[3] = in vivo; cited from earlier work
[4] = Blood pressure (BP), initial decrease phase and second increase phase; type: in vivo, cat; details: Table 3, 125 μg/kg i.v.
LD50 in mice per oral = details: mouse, in vivo

- water solubility (in words) ([1]; water, reason for NT i.v.): low water solubility
SMILES: CCCCn1c(=O)c2c(ncn2CC(=O)CC)n(CCCC)c1=O [Compound C, 1,3-di-n-butyl-7-(2-oxobutyl)xanthine]
- pO2 (increase) (skeletal muscle; Table 1, ischaemic muscle, cat, i.d., 32 mg/kg): 6 mmHg
- changes in contractility and pO2 in comparison with Compound A (in words) [2]: less pronounced in comparison with Compound A
- contractility (% initial value) ([2]; Table 1, ischaemic muscle, i.d., 12.5 mg/kg): 22 % initial value
- dose range of activity [2]: 5 to 32 mg/kg

SMILES: CC(=O)CCCCn1c(=O)c2c(ncn2C)n(C)c1=O [Compound B, pentoxyphylline]
- Mean effect of Compound B compared to Compound A (skeletal muscle; Table 2, B at 5 mg/kg vs A at 125 μg/kg, mean): 21.3%
- effect of Compound B, Δ pO2 (skeletal muscle; Table 2, control hind limb, 5 mg/kg i.v., individual cats, 5 mg/kg): 0.3 Torr
- changes in contractility and pO2 in comparison with Compound A (in words) [2]: less pronounced in comparison with Compound A
- dose range of activity [2]: 5 to 32 mg/kg
- oral toxicity (in words) [3]: low oral toxicity

SMILES: CCCCn1c(=O)c2c(ncn2CC(C)=O)n(CCCC)c1=O [Compound A, 1,3-di-n-butyl-7-(2-oxopropyl)xanthine]
- effect of Compound A, Δ pO2 (skeletal muscle; Table 2, control hind limb, individual cats): 3.8 Torr and 3.5 Torr and 3.4 Torr
- effect of Compound A, Δ pO2 (skeletal muscle; Table 2, hind limb with art. ligation, individual cats): 6.2 Torr and 7.3 Torr and 5.2 Torr and 5.6 Torr
- pO2 of ischaemic skeletal muscle (in words) (skeletal muscle; cat): distinct increase
- solubility in aqueous media (in words) ([1]; aqueous media): only sparingly soluble in aqueous media
- t, time interval to reach initial values, second phase BP increase [4]: 32 min
- contractility of ischaemic skeletal muscle (in words) [2]: distinct increase
- dose range of activity [2]: 0.05 to 0.125 mg/kg
- LD50 (LD50 in mice per oral): > 1000 mg/kg
